According to patent US12673945B2, “3-((8-((1H-pyrazol-4-yl)amino)imidazo[1,2-a]pyridin-3-yl)ethinyl)-n-phenylbenzamide derivative, method for preparing same, and pharmaceutical composition containing same as active ingredient for prevention or treatment of cancer” (DAEGU-GYEONGBUK MEDICAL INNOVATION FOUNDATION, priority 2020, dated 2026):

Legend:
[1] = oral pharmacokinetic test; format: in vivo, ICR mice; details: ICR, mouse, plasma, 10 mg/kg, 10 mg/Kg PO, vehicle A (NMP:PEG400=5:95)
Method: (§1) To evaluate the pharmacokinetic properties in vivo, oral pharmacokinetic test was performed with the compounds of Comparative Examples 1 and 4 and Examples 1 and 4 using mice and rats, and the PK parameters are shown in Table 10.
(§2) ICR mice (6-7 weeks old) and SD rats (6-7 weeks old) were used for the test. The fasted group was fasted about 16 hours before oral administration, and the fed group was fasted about 4 hours before oral administration. The test drug for oral administration was used by dissolving the drug in a vehicle at a concentration of 1 mg/mL for use, and blood samples were collected (time point: 0.25, 0.5, 1, 2, 4, 8, 12, 24, 32, n=3) from the heart (mouse, 500 μL/time point) or jugular vein (rat, 120 μL/time point). Blood was centrifuged at 12,000 G at 4° C. for 2 minutes to separate plasma, and stored at −80° C. until analysis. • Vehicle A (NMP:PEG400=5:95) • Vehicle B (0.5% methyl cellulose) 6-2. Sampling and Pretreatment
(§3) To 20 μl of plasma, 180 μl of acetonitrile (including internal standard) was added. The mixture was vortexed and centrifuged for 5 minutes at 15,000 rpm at 4° C. The supernatant obtained after centrifugation was analyzed by LC-MS/MS.
(§4) PK parameters were calculated with a non-compartmental analysis model using Phoenix WinNonlin 6.4 version (Pharsight, USA) program.

[2] = oral pharmacokinetic test; format: in vivo, SD rats; details: SD, plasma; rat, 10 mg/Kg PO, vehicle A (NMP:PEG400=5:95)
Method: as §1, §2, §3, §4

[3] = tested on: T315I-Bcr-Abl (Ba/F3); assay: Ba/F3 cell proliferation inhibition; format: cell-based; details: BaF3; 72 hours, Cell Counting Kit-8
Method in brief: (§5)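 Parental and T315I-Bcr-Abl Ba/F3 cells, 1×10^4 per well, exposed 72 h at 37 °C to nine 3-fold dilutions, final 0 to 10 μM. Viability by CCK-8 after 2 h, absorbance 450 nm; GI50 fitted from percent of vehicle-treated cells.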

[4] = tested on: Parental (Ba/F3); assay: Ba/F3 cell proliferation inhibition; format: cell-based; details: BaF3; 72 hours, Cell Counting Kit-8
Method in brief: as §5

[5] = tested on: KOPM28 cells; assay: human CML cell proliferation inhibition; format: cell-based; details: 72 hours, Cell Counting Kit-8
Method in brief: (§6)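 Bcr-Abl TCCS and KOPM28 cells, plus their T315I-Bcr-Abl counterparts, are treated with compound (final 0–10 μM, 5-fold steps) for 72 h at 37 °C. Viability is measured by CCK-8 at 450 nm, and GI50 is computed as percent of DMSO control.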

[6] = tested on: T315I-TCCS cells; assay: human CML cell proliferation inhibition; format: cell-based; details: 72 hours, Cell Counting Kit-8
Method in brief: as §6

[7] = tested on: TCCS cells; assay: human CML cell proliferation inhibition; format: cell-based; details: 72 hours, Cell Counting Kit-8
Method in brief: as §6

[8] = tested on: T315I-KOPM28 cells; assay: human CML cell proliferation inhibition; format: cell-based; details: 72 hours, Cell Counting Kit-8
Method in brief: as §6

SMILES	AUC(0-t) [1] [ng·h/mL]	Cmax [1] [ng/mL]	half-life [1] [h]	AUC(0-t) [2] [ng·h/mL]	Cmax [2] [ng/mL]	GI50 [3] [nM]	GI50 [4] [nM]	GI50 [5] [nM]	GI50 [6] [nM]	GI50 [7] [nM]	GI50 [8] [nM]
Cc1cn(-c2cc(NC(=O)c3ccc(C)c(C#Cc4cnc5c(Nc6cnn(C)c6)cccn45)c3)cc(C(F)(F)F)c2)cn1 [Comparative Example 1, 4-methyl-N-(3-(4-methyl-1H-imidazol-1-yl)-5-(trifluoromethyl)phenyl)-3-((8-((1-methyl-1H-pyrazol-4-yl)amino)imidazo[1,2-a]pyridin-3-yl)ethynyl)benzamide, reference compound]	7730	810	3.5								
Cc1cn(-c2cc(NC(=O)c3ccc(C)c(C#Cc4cnc5c(Nc6cnn(C)c6)cccn45)c3)cc(C(C)(C)C#N)c2)cn1 [Comparative Example 4, N-(3-(2-cyanopropan-2-yl)-5-(4-methyl-1H-imidazol-1-yl)phenyl)-4-methyl-3-((8-((1-methyl-1H-pyrazol-4-yl)amino)imidazo[1,2-a]pyridin-3-yl)ethynyl)benzamide, reference compound]	12600	3840	3.3	2960	169						
Cc1cc(F)c(C(=O)Nc2ccc(CN3CCCN(C)CC3)c(C(C)(C)C#N)c2)cc1C#Cc1cnc2c(Nc3cnn(C)c3)cccn12 [Example 42, N-(3-(2-cyanopropan-2-yl)-4-((4-methyl-1,4-diazepan-1-yl)methyl)phenyl)-2-fluoro-4-methyl-5-((8-((1-methyl-1H-pyrazol-4-yl)amino)imidazo[1,2-a]pyridin-3-yl)ethynyl)benzamide]						50 to 500	500 to 5000	< 10	100	< 10	> 100
Cc1cc(F)c(C(=O)Nc2cc(-c3cnn(C)c3)cc(C(C)(C)C#N)c2)cc1C#Cc1cnc2c(Nc3cnn(C)c3)cccn12 [Example 19, N-(3-(2-cyanopropan-2-yl)-5-(1-methyl-1H-pyrazol-4-yl)phenyl)-2-fluoro-4-methyl-5-((8-((1-methyl-1H-pyrazol-4-yl)amino)imidazo[1,2-a]pyridin-3-yl)ethynyl)benzamide]						50 to 500	> 5000	< 10	100	< 10	> 100
Cc1ccc(C(=O)Nc2cc(Oc3ccncc3)cc(C(F)(F)F)c2)c(F)c1C#Cc1cnc2c(Nc3cnn(C)c3)cccn12 [Example 9, 2-fluoro-4-methyl-3-((8-((1-methyl-1H-pyrazol-4-yl)amino)imidazo[1,2-a]pyridin-3-yl)ethynyl)-N-(3-(pyridin-4-yloxy)-5-(trifluoromethyl)phenyl)benzamide]						< 50	> 5000	< 10	100	< 10	100
Cc1cn(-c2cc(NC(=O)c3ccc(C)c(C#Cc4cnc5c(Nc6cnn(C)c6)cccn45)c3F)cc(C(F)(F)F)c2)cn1 [Example 6, 2-fluoro-4-methyl-N-(3-(4-methyl-1H-imidazol-1-yl)-5-(trifluoromethyl)phenyl)-3-((8-((1-methyl-1H-pyrazol-4-yl)amino)imidazo[1,2-a]pyridin-3-yl)ethynyl)benzamide]						50 to 500	> 5000	100	100	< 10	> 100

Second part, led by results:

AUC(0-t) [1] [ng·h/mL]	Cmax [1] [ng/mL]	half-life [1] [h]	AUC(0-t) [2] [ng·h/mL]	Cmax [2] [ng/mL]	GI50 [3] [nM]	SMILES	GI50 [4] [nM]	GI50 [5] [nM]	GI50 [6] [nM]	GI50 [7] [nM]	GI50 [8] [nM]
					500 to 5000	Cc1cc(F)c(C(=O)Nc2ccc(Cn3ccnc3)c(C(F)(F)F)c2)cc1C#Cc1cnc2c(Nc3cnn(C)c3)cccn12 [Example 63, N-(4-((1H-imidazol-1-yl)methyl)-3-(trifluoromethyl)phenyl)-2-fluoro-4-methyl-5-((8-((1-methyl-1H-pyrazol-4-yl)amino)imidazo[1,2-a]pyridin-3-yl)ethynyl)benzamide]	> 5000	< 10	> 100	< 10	> 100
					50 to 500	Cc1cc(F)c(C(=O)Nc2ccc(Cn3ccnc3)c(C(C)(C)C#N)c2)cc1C#Cc1cnc2c(Nc3cnn(C)c3)cccn12 [Example 46, N-(4-((1H-imidazol-1-yl)methyl)-3-(2-cyanopropan-2-yl)phenyl)-2-fluoro-4-methyl-5-((8-((1-methyl-1H-pyrazol-4-yl)amino)imidazo[1,2-a]pyridin-3-yl)ethynyl)benzamide]	> 5000	< 10	> 100	< 10	> 100
					50 to 500	Cc1cc(F)c(C(=O)Nc2ccc(Cn3cncn3)c(C(F)(F)F)c2)cc1C#Cc1cnc2c(Nc3cn[nH]c3)cccn12 [Example 114, N-(4-((1H-1,2,4-triazol-1-yl)methyl)-3-(trifluoromethyl)phenyl)-5-((8-((1H-pyrazol-4-yl)amino)imidazo[1,2-a]pyridin-3-yl)ethynyl)-2-fluoro-4-methylbenzamide]	> 5000	< 10	> 100	< 10	> 100
					50 to 500	Cc1cc(F)c(C(=O)Nc2ccc(CN3CCC(N(C)C)C3)c(C(C)(C)C#N)c2)cc1C#Cc1cnc2c(Nc3cn[nH]c3)cccn12 (centres unmarked) [Example 91, 5-((8-((1H-pyrazol-4-yl)amino)imidazo[1,2-a]pyridin-3-yl)ethynyl)-N-(3-(2-cyanopropan-2-yl)-4-((3-(dimethylamino)pyrrolidin-1-yl)methyl)phenyl)-2-fluoro-4-methylbenzamide]	500 to 5000	< 10	> 100	< 10	> 100
					50 to 500	Cc1cc(F)c(C(=O)Nc2cc(N3CCN(C)CC3)cc(C(F)(F)F)c2)cc1C#Cc1cnc2c(Nc3cnn(C)c3)cccn12 [Example 47, 2-fluoro-4-methyl-5-((8-((1-methyl-1H-pyrazol-4-yl)amino)imidazo[1,2-a]pyridin-3-yl)ethynyl)-N-(3-(4-methylpiperazin-1-yl)-5-(trifluoromethyl)phenyl)benzamide]	500 to 5000	< 10	100	< 10	100
					< 50	Cc1cc(F)c(C(=O)Nc2ccc(CN3CCCN(C)CC3)c(C(F)(F)F)c2)cc1C#Cc1cnc2c(Nc3cnn(C)c3)cccn12 [Example 61, 2-fluoro-4-methyl-N-(4-((4-methyl-1,4-diazepan-1-yl)methyl)-3-(trifluoromethyl)phenyl)-5-((8-((1-methyl-1H-pyrazol-4-yl)amino)imidazo[1,2-a]pyridin-3-yl)ethynyl)benzamide]	500 to 5000	< 10	100	< 10	< 10
					50 to 500	Cc1cc(F)c(C(=O)Nc2cc(CN3CCN(CCO)CC3)cc(C(F)(F)F)c2)cc1C#Cc1cnc2c(Nc3cnn(C)c3)cccn12 [Example 69, 2-fluoro-N-(3-((4-(2-hydroxyethyl)piperazin-1-yl)methyl)-5-(trifluoromethyl)phenyl)-4-methyl-5-((8-((1-methyl-1H-pyrazol-4-yl)amino)imidazo[1,2-a]pyridin-3-yl)ethynyl)benzamide]	> 5000	< 10	> 100	100	> 100
